From patent US6509163B1, “Methods of screening modulators of mammalian P2X7 purinergic receptors” (Glaxo Group Limited, priority 1997, dated 2003)

Legend:
rP2X7 receptor = target: T1, rP2X7 receptor (Rattus norvegicus, UniProt Q64663); assay: Whole-cell recordings in HEK293 cells transiently transfected with rP2X7 receptors (Example 3); assay type: cell-based
T1 construct: yielding a construct that encoded the entire P2X7 protein; expressed in transfected cells
T1 sequence (Q64663 1-595): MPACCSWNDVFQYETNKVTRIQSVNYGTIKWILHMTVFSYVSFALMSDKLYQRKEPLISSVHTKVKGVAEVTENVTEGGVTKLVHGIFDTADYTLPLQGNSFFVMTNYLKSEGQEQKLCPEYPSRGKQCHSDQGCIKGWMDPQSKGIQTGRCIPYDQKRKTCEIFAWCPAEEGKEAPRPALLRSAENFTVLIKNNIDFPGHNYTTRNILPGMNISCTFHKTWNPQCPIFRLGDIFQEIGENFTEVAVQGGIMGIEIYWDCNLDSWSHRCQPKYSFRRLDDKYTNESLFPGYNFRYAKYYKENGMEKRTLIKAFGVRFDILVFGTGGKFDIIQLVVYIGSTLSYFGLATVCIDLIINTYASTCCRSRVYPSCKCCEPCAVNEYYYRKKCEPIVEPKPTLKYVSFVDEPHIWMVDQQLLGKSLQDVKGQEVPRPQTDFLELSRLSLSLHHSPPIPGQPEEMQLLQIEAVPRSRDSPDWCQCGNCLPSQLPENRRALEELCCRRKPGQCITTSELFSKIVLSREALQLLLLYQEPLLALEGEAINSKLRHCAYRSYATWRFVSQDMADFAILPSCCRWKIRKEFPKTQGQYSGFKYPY
Description: (§1) Cell culture. HEK293 cells were transiently transfected with cDNA (1 μg/ml) and lipofectin dissolved in Optimem (GIBCO) placed into petri dishes containing four coverslips onto which cells were plated at a density of about 8×10^4/coverslip. Cells were washed 5 h later and normal DMEM applied. Electrophysiological studies or dye uptake measurements were carried out 18-49 h later. For each set of transfections, parallel experiments were performed on HEK cells transfected with cDNA encoding both rP2X7 and hP2X7 receptors.
Electrophysiological experiments. Whole-cell recordings were made using the EPC9 patch-clamp amplifier and Pulse acquisition programs (HEKA, Lambrecht, Germany). Patch pipettes (5-7 MΩ) contained (mM) CsCl or NaCl 154, EGTA 10, HEPES 5. The normal extracellular solution contained (mM) NaCg 147, KCl2, CaCl2 2, MgCl2 1, HEPES 10 and glucose 12, and the “low divalent” solution had no magnesium and 0.3 mM CaCl2. Agonists were delivered by U-tube delivery system; antagonists, when applied, were present in both superfusion and U-tube. Experiments were carried out at room temperature.

[1] = target: T2, h-rP2X7 (human 1-346, rat 347-595) (Homo sapiens, UniProt Q99572, A348T/A433Q/A445S/A505Q/C493A/C552S/D356N/D438E/D448H/D537E/D539E/E585Q/F350C/F353L/F525L/G559V/H366R/H491R/H521E/I367V/I459M/K464I/K501R/L354I/L516I/M434T/N361T/N413D/P443S/Q375E/R410W/R419K/R463Q/R514S/R544K/R576K/S359A/S390P/S407P/S481N/S490N/S540A/S584T/S593Y/T437L/T449S/T467V/T541I/V378A/V475D/V522A/V538G/W370S); assay: Whole-cell recordings in HEK293 cells expressing chimeric h-rP2X7 receptors; assay type: cell-based; details: low divalent concentrations, after removal of BzATP, n=10
T2 construct: h-rP2X7 (human 1-346, rat 347-595); expressed in transfected cells; host or cells: HEK293 (transient)
T2 sequence (Q99572 1-595 A348T/F350C/F353L/L354I/D356N/S359A/N361T/H366R/I367V/W370S/Q375E/V378A/S390P/S407P/R410W/N413D/R419K/A433Q/M434T/T437L/D438E/P443S/A445S/D448H/T449S/I459M/R463Q/K464I/T467V/V475D/S481N/S490N/H491R/C493A/K501R/A505Q/R514S/L516I/H521E/V522A/F525L/D537E/V538G/D539E/S540A/T541I/R544K/C552S/G559V/R576K/S584T/E585Q/S593Y): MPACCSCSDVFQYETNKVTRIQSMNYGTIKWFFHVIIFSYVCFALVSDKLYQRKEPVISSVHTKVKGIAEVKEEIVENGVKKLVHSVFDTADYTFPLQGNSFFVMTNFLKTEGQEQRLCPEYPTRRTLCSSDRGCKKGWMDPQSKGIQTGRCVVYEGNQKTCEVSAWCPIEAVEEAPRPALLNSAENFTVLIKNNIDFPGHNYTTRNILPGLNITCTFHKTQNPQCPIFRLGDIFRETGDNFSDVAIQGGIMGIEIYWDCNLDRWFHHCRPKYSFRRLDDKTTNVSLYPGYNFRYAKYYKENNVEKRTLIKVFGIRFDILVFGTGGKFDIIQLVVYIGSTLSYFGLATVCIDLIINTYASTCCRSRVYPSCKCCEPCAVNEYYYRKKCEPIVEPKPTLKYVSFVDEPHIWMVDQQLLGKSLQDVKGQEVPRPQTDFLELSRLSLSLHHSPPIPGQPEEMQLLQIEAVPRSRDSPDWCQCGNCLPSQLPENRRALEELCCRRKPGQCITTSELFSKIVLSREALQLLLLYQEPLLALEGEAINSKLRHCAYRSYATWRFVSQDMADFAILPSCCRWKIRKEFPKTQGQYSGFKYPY
Source text: Chimeras. A silent restriction site (NheI) was introduced at the equivalent positions in the rat and human cDNAs using the Pfu mutagenesis kit (Stratagene) (T to G at 1069 in rP2X7; G to A at 1072 in hP2X7) . A NheI-XhoI fragment corresponding to 3′ extremity of each cDNA was then excised and subcloned in the opposite plasmid (i.e. human 3′ end into rat background). The resulting chimeras were h-rP2X7 (human 1-346, rat 347-595) and r-hP2X7 (rat 1-346, human 347-595) (FIG. 5). All constructions were sequenced on their entire coding region.
as §1
Electrophysiological experiments. Whole-cell recordings were made using the EPC9 patch-clamp amplifier and Pulse acquisition programs (HEKA, Lambrecht, Germany). Patch pipettes (5-7 MΩ) contained (mM) CsCl or NaCl 154, EGTA 10, HEPES 5. […]

SMILES: Nc1ncnc2c1ncn2[C@@H]1O[C@H](COP(=O)(O)OP(=O)(O)OP(=O)(O)O)[C@@H](OC(=O)c2ccc(C(=O)c3ccccc3)cc2)[C@H]1O [BzATP, 3′-O-(4-benzoyl)benzoyl ATP]
- cation current induced by maximal concentration of BzATP (rP2X7 receptor; 30 μM BzATP, n=12): 1869±286 pA
- current measured at 30 s, of the peak current (rP2X7 receptor; low extracellular divalent concentrations, n=13): 80±3%
- current measured at 30 s, of peak [1]: 70±4
